Experiment: xn = mol fraction of the nth substance listed
Conditions: 101.33 kPa, Liquid, vibrating tube

CC(C)=O [acetone] + O
mass density [kg/m3]
Conditions | x1 = 0.0988 | x1 = 0.2193 | x1 = 0.2973 | x1 = 0.3998 | x1 = 0.4986 | x1 = 0.5903 | x1 = 0.6984 | x1 = 0.7934 | x1 = 0.8916 | x1 = 1
283.15 K | 966.507 | 932.823 | 913.382 | 889.08 | 868.988 | 853.092 | 836.647 | 824.028 | 812.997 | 801.669
288.15 K | 963.567 | 928.61 | 908.777 | 884.145 | 863.861 | 847.829 | 831.252 | 818.534 | 807.424 | 796.037
293.14 K | – | 924.322 | 904.105 | 879.148 | – | – | – | – | – | –
293.15 K | 960.497 | – | – | – | 858.674 | 842.508 | 825.797 | 812.982 | 801.797 | 790.355
298.14 K | 957.313 | 919.968 | 899.375 | 874.098 | – | 837.135 | 820.292 | 807.383 | 796.13 | –
298.15 K | – | – | – | – | 853.436 | – | – | – | – | 784.638
303.14 K | – | 915.544 | 894.587 | 868.996 | 848.142 | 831.707 | 814.735 | 801.735 | 790.413 | 778.876
303.15 K | 954.01 | – | – | – | – | – | – | – | – | –
308.14 K | – | – | – | – | – | 826.22 | – | – | – | –
308.15 K | 950.61 | 911.052 | 889.735 | 863.836 | 842.791 | – | 809.12 | 796.028 | 784.645 | 773.065
313.14 K | 947.117 | 906.488 | 884.822 | 858.617 | – | 820.677 | 803.446 | 790.262 | 778.818 | 767.205
313.15 K | – | – | – | – | 837.381 | – | – | – | – | –
318.14 K | – | 901.855 | 879.849 | 853.341 | 831.924 | – | – | 784.437 | 772.936 | 761.288
318.15 K | 943.497 | – | – | – | – | 815.068 | 797.707 | – | – | –
323.14 K | – | – | 874.812 | 848.021 | 826.399 | – | 791.9 | 778.546 | 766.99 | 755.314
323.15 K | 939.767 | 897.151 | – | – | – | 809.395 | – | – | – | –

CCC(=O)O [propanoic acid] + CC(C)=O
mass density [kg/m3]
Conditions | x2 = 0 | x2 = 0.1014 | x2 = 0.1991 | x2 = 0.3046 | x2 = 0.4011 | x2 = 0.5001 | x2 = 0.603 | x2 = 0.6887 | x2 = 0.7703 | x2 = 0.8987
283.15 K | 1004.11 | 987.375 | 970.353 | 951.246 | 933.088 | 913.785 | 892.899 | 874.585 | 856.85 | 826.598
288.15 K | 998.688 | 982.013 | 965.023 | 945.944 | 927.765 | 908.446 | 887.52 | 869.18 | 851.407 | 821.062
293.15 K | 993.261 | 976.644 | 959.68 | 940.613 | 922.423 | 903.081 | 882.117 | 863.74 | 845.923 | 815.482
298.14 K | – | – | 954.344 | – | 917.072 | 897.705 | – | 858.28 | 840.415 | 809.87
298.15 K | 987.847 | 971.282 | – | 935.277 | – | – | 876.699 | – | – | –
303.14 K | 982.44 | 965.92 | 948.999 | 929.933 | 911.708 | 892.312 | 871.26 | 852.794 | 834.877 | 804.221
308.15 K | 977.037 | 960.555 | 943.653 | 924.579 | 906.33 | 886.9 | 865.798 | 847.276 | 829.305 | 798.532
313.14 K | 971.635 | 955.192 | – | – | – | – | 860.309 | – | 823.695 | –
313.15 K | – | – | 938.294 | 919.21 | 900.935 | 881.462 | – | 841.731 | – | 792.797
318.14 K | 966.24 | 949.825 | 932.928 | 913.828 | 895.523 | 876.007 | 854.791 | 836.154 | 818.051 | 787.018
323.14 K | 960.843 | – | 927.551 | 908.43 | 890.087 | – | – | – | 812.366 | 781.194
323.15 K | – | 944.448 | – | – | – | – | 849.244 | 830.541 | – | –

CCC(=O)O [propanoic acid] + O
mass density [kg/m3]
Conditions | x1 = 0.1298 | x1 = 0.2029 | x1 = 0.3012 | x1 = 0.4007 | x1 = 0.5008 | x1 = 0.5989 | x1 = 0.6974 | x1 = 0.7965 | x1 = 0.8915 | x1 = 1
283.15 K | 1026.89 | 1033.97 | 1034.47 | 1032.63 | 1029.26 | 1025.17 | 1020.51 | 1015.43 | 1010.32 | 1004.11
288.14 K | – | – | – | 1027.99 | – | – | – | – | 1005.04 | –
288.15 K | 1023.97 | 1030.05 | 1029.92 | – | 1024.44 | 1020.22 | 1015.46 | 1010.26 | – | 998.688
293.14 K | – | 1026.08 | 1025.58 | – | – | – | 1010.39 | – | – | –
293.15 K | 1020.98 | – | – | 1023.31 | 1019.59 | 1015.26 | – | 1005.1 | 999.76 | 993.261
298.14 K | – | 1022.05 | 1021.14 | – | 1014.72 | – | 1005.31 | 999.927 | – | –
298.15 K | 1017.85 | – | – | 1018.61 | – | 1010.28 | – | – | 994.478 | 987.847
303.14 K | 1014.61 | – | 1016.76 | 1013.88 | 1009.8 | 1005.29 | – | 994.744 | – | 982.44
303.15 K | – | 1017.97 | – | – | – | – | 1000.22 | – | 989.192 | –
308.14 K | – | – | – | – | – | – | – | 989.551 | – | –
308.15 K | 1011.28 | 1013.84 | 1012.25 | 1009.12 | 1004.17 | 1000.27 | 995.12 | – | 983.905 | 977.037
313.14 K | 1007.85 | 1009.64 | 1007.69 | – | 999.956 | 995.242 | 990.001 | – | 978.613 | 971.635
313.15 K | – | – | – | 1004.33 | – | – | – | 984.345 | – | –
318.14 K | 1004.32 | 1005.39 | 1003.09 | 999.507 | 994.902 | 990.186 | 984.864 | 979.126 | 973.307 | 966.24
323.14 K | 1000.71 | 1001.09 | 998.434 | 994.651 | – | 985.106 | – | 973.895 | 967.999 | –
323.15 K | – | – | – | – | 990.008 | – | 979.705 | – | – | 960.843

From the NIST ThermoML archive (doi:10.1021/je030102f)
